Measurements taken from PubChem BioAssay (NCI).
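Compound exposure: 48 hours, 5 concentrations, 96-well plates. Here, GI50 denotes the concentration required for 50% inhibition of growth. TGI marks complete inhibition of growth.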

Columns and labels:
Assay in all cases: growth of human tumour cells (NCI), 48 h
786-0 renal = test system: 786-0 renal
A498 renal = test system: A498 renal
A549 NSCLC = test system: A549 NSCLC
ACHN renal = test system: ACHN renal
BT-549 breast = test system: BT-549 breast
CAKI-1 renal = test system: CAKI-1 renal
CCRF-CEM leukemia = test system: CCRF-CEM leukemia
COLO 205 colon = test system: COLO 205 colon
DU-145 prostate = test system: DU-145 prostate
EKVX NSCLC = test system: EKVX NSCLC
HCC-2998 colon = test system: HCC-2998 colon
HCT-116 colon = test system: HCT-116 colon
HCT-15 colon = test system: HCT-15 colon
HL-60(TB) leukemia = test system: HL-60(TB) leukemia
HOP-62 NSCLC = test system: HOP-62 NSCLC
HOP-92 NSCLC = test system: HOP-92 NSCLC
HS 578T breast = test system: HS 578T breast
HT29 colon = test system: HT29 colon
IGROV1 ovarian = test system: IGROV1 ovarian
K-562 leukemia = test system: K-562 leukemia
KM12 colon = test system: KM12 colon
LOX IMVI melanoma = test system: LOX IMVI melanoma
M14 melanoma = test system: M14 melanoma
MALME-3M melanoma = test system: MALME-3M melanoma
MCF7 breast = test system: MCF7 breast
MDA-MB-231 breast = test system: MDA-MB-231 breast
MDA-MB-435 = test system: MDA-MB-435
MOLT-4 leukemia = test system: MOLT-4 leukemia
NCI-H226 lung = test system: NCI-H226 lung
NCI-H23 lung = test system: NCI-H23 lung
NCI-H460 lung = test system: NCI-H460 lung
NCI-H522 lung = test system: NCI-H522 lung
NCI/ADR-RES ovarian = test system: NCI/ADR-RES ovarian
OVCAR-3 ovarian = test system: OVCAR-3 ovarian
OVCAR-4 ovarian = test system: OVCAR-4 ovarian
OVCAR-5 ovarian = test system: OVCAR-5 ovarian
OVCAR-8 ovarian = test system: OVCAR-8 ovarian
PC-3 prostate = test system: PC-3 prostate
RPMI-8226 leukemia = test system: RPMI-8226 leukemia
RXF 393 renal = test system: RXF 393 renal
SF-268 CNS = test system: SF-268 CNS
SF-295 CNS = test system: SF-295 CNS
SF-539 CNS = test system: SF-539 CNS
SK-MEL-2 melanoma = test system: SK-MEL-2 melanoma
SK-MEL-28 melanoma = test system: SK-MEL-28 melanoma
SK-MEL-5 melanoma = test system: SK-MEL-5 melanoma
SK-OV-3 ovarian = test system: SK-OV-3 ovarian
SN12C renal = test system: SN12C renal
SNB-19 CNS = test system: SNB-19 CNS
SNB-75 CNS = test system: SNB-75 CNS
SR leukemia = test system: SR leukemia
SW-620 colon = test system: SW-620 colon
T-47D breast = test system: T-47D breast
TK-10 renal = test system: TK-10 renal
U251 CNS = test system: U251 CNS
UACC-257 melanoma = test system: UACC-257 melanoma
UACC-62 melanoma = test system: UACC-62 melanoma
UO-31 renal = test system: UO-31 renal

Q: Fc1ccc(-c2ncn(C3CCNCC3)c2-c2ccnc(Oc3ccccc3)n2)cc1 was tested. Which GI50 (786-0 renal) did it give?
A: > 22.5 µM

Q: And the TGI (786-0 renal)?
A: > 25 µM

Q: And the GI50 (A498 renal)?
A: > 16.1 µM

Q: And the TGI (A498 renal)?
A: > 25 µM

Q: And the GI50 (A549 NSCLC)?
A: 20.1 µM

Q: And the TGI (A549 NSCLC)?
A: > 25 µM

Q: And the GI50 (ACHN renal)?
A: 7.22 µM

Q: What about the TGI (ACHN renal) of the same molecule?
A: > 25 µM

Q: And the GI50 (BT-549 breast)?
A: 23 µM

Q: What about the TGI (BT-549 breast) of the same molecule?
A: > 25 µM

Q: What about the GI50 (CAKI-1 renal) of the same molecule?
A: 18.4 µM

Q: What about the TGI (CAKI-1 renal) of the same molecule?
A: > 25 µM

Q: And the GI50 (CCRF-CEM leukemia)?
A: > 23.3 µM

Q: And the TGI (CCRF-CEM leukemia)?
A: > 25 µM

Q: And the GI50 (COLO 205 colon)?
A: 7.32 µM

Q: What about the TGI (COLO 205 colon) of the same molecule?
A: 18.6 µM

Q: What about the GI50 (DU-145 prostate) of the same molecule?
A: > 25 µM

Q: And the TGI (DU-145 prostate)?
A: > 25 µM

Q: What about the GI50 (EKVX NSCLC) of the same molecule?
A: > 25 µM

Q: What about the TGI (EKVX NSCLC) of the same molecule?
A: > 25 µM

Q: What about the GI50 (HCC-2998 colon) of the same molecule?
A: 12.8 µM

Q: What about the TGI (HCC-2998 colon) of the same molecule?
A: > 25 µM

Q: What about the GI50 (HCT-116 colon) of the same molecule?
A: 14.8 µM

Q: What about the TGI (HCT-116 colon) of the same molecule?
A: > 25 µM

Q: What about the GI50 (HCT-15 colon) of the same molecule?
A: > 22.8 µM

Q: What about the TGI (HCT-15 colon) of the same molecule?
A: > 25 µM

Q: What about the GI50 (HL-60(TB) leukemia) of the same molecule?
A: > 16.6 µM

Q: And the TGI (HL-60(TB) leukemia)?
A: > 25 µM

Q: What about the GI50 (HOP-62 NSCLC) of the same molecule?
A: > 25 µM

Q: And the TGI (HOP-62 NSCLC)?
A: > 25 µM

Q: What about the GI50 (HOP-92 NSCLC) of the same molecule?
A: 5.75 µM

Q: And the TGI (HOP-92 NSCLC)?
A: > 25 µM

Q: What about the GI50 (HS 578T breast) of the same molecule?
A: > 13.1 µM

Q: What about the TGI (HS 578T breast) of the same molecule?
A: > 25 µM

Q: What about the GI50 (HT29 colon) of the same molecule?
A: 8.3 µM

Q: And the TGI (HT29 colon)?
A: > 25 µM

Q: What about the GI50 (IGROV1 ovarian) of the same molecule?
A: 13.5 µM

Q: And the TGI (IGROV1 ovarian)?
A: > 25 µM

Q: And the GI50 (K-562 leukemia)?
A: 10.8 µM

Q: And the TGI (K-562 leukemia)?
A: > 25 µM

Q: What about the GI50 (KM12 colon) of the same molecule?
A: > 25 µM

Q: What about the TGI (KM12 colon) of the same molecule?
A: > 25 µM

Q: What about the GI50 (LOX IMVI melanoma) of the same molecule?
A: > 15.8 µM

Q: And the TGI (LOX IMVI melanoma)?
A: > 25 µM

Q: And the GI50 (M14 melanoma)?
A: 9.86 µM

Q: What about the TGI (M14 melanoma) of the same molecule?
A: > 25 µM

Q: And the GI50 (MALME-3M melanoma)?
A: 18.4 µM

Q: And the TGI (MALME-3M melanoma)?
A: > 25 µM

Q: What about the GI50 (MCF7 breast) of the same molecule?
A: 9.3 µM

Q: What about the TGI (MCF7 breast) of the same molecule?
A: > 25 µM

Q: And the GI50 (MDA-MB-231 breast)?
A: 13.4 µM

Q: What about the TGI (MDA-MB-231 breast) of the same molecule?
A: > 25 µM

Q: What about the GI50 (MDA-MB-435) of the same molecule?
A: 17.8 µM

Q: And the TGI (MDA-MB-435)?
A: > 25 µM

Q: And the GI50 (MOLT-4 leukemia)?
A: 23.4 µM

Q: And the TGI (MOLT-4 leukemia)?
A: > 25 µM

Q: And the GI50 (NCI-H226 lung)?
A: > 25 µM

Q: And the TGI (NCI-H226 lung)?
A: > 25 µM

Q: And the GI50 (NCI-H23 lung)?
A: > 25 µM

Q: What about the TGI (NCI-H23 lung) of the same molecule?
A: > 25 µM

Q: What about the GI50 (NCI-H460 lung) of the same molecule?
A: 16.1 µM

Q: And the TGI (NCI-H460 lung)?
A: > 25 µM

Q: What about the GI50 (NCI-H522 lung) of the same molecule?
A: > 25 µM

Q: What about the TGI (NCI-H522 lung) of the same molecule?
A: > 25 µM

Q: And the GI50 (NCI/ADR-RES ovarian)?
A: > 25 µM

Q: And the TGI (NCI/ADR-RES ovarian)?
A: > 25 µM

Q: And the GI50 (OVCAR-3 ovarian)?
A: > 25 µM

Q: And the TGI (OVCAR-3 ovarian)?
A: > 25 µM

Q: And the GI50 (OVCAR-4 ovarian)?
A: > 25 µM

Q: And the TGI (OVCAR-4 ovarian)?
A: > 25 µM

Q: What about the GI50 (OVCAR-5 ovarian) of the same molecule?
A: 22.3 µM

Q: What about the TGI (OVCAR-5 ovarian) of the same molecule?
A: > 25 µM

Q: What about the GI50 (OVCAR-8 ovarian) of the same molecule?
A: > 25 µM

Q: And the TGI (OVCAR-8 ovarian)?
A: > 25 µM

Q: And the GI50 (PC-3 prostate)?
A: > 25 µM

Q: And the TGI (PC-3 prostate)?
A: > 25 µM

Q: And the GI50 (RPMI-8226 leukemia)?
A: > 23.9 µM

Q: And the TGI (RPMI-8226 leukemia)?
A: > 25 µM

Q: And the GI50 (RXF 393 renal)?
A: 11.7 µM

Q: And the TGI (RXF 393 renal)?
A: > 25 µM

Q: And the GI50 (SF-268 CNS)?
A: > 25 µM

Q: What about the TGI (SF-268 CNS) of the same molecule?
A: > 25 µM

Q: What about the GI50 (SF-295 CNS) of the same molecule?
A: 18.2 µM

Q: And the TGI (SF-295 CNS)?
A: > 25 µM

Q: What about the GI50 (SF-539 CNS) of the same molecule?
A: > 25 µM

Q: And the TGI (SF-539 CNS)?
A: > 25 µM

Q: What about the GI50 (SK-MEL-2 melanoma) of the same molecule?
A: > 25 µM

Q: And the TGI (SK-MEL-2 melanoma)?
A: > 25 µM

Q: And the GI50 (SK-MEL-28 melanoma)?
A: 16.9 µM

Q: What about the TGI (SK-MEL-28 melanoma) of the same molecule?
A: > 25 µM

Q: And the GI50 (SK-MEL-5 melanoma)?
A: 4.87 µM

Q: What about the TGI (SK-MEL-5 melanoma) of the same molecule?
A: 14.1 µM

Q: What about the GI50 (SK-OV-3 ovarian) of the same molecule?
A: 20.1 µM

Q: And the TGI (SK-OV-3 ovarian)?
A: > 25 µM

Q: And the GI50 (SN12C renal)?
A: 18.5 µM

Q: And the TGI (SN12C renal)?
A: > 25 µM

Q: What about the GI50 (SNB-19 CNS) of the same molecule?
A: > 25 µM

Q: What about the TGI (SNB-19 CNS) of the same molecule?
A: > 25 µM

Q: And the GI50 (SNB-75 CNS)?
A: > 19.3 µM

Q: What about the TGI (SNB-75 CNS) of the same molecule?
A: > 25 µM

Q: What about the GI50 (SR leukemia) of the same molecule?
A: 9.17 µM

Q: And the TGI (SR leukemia)?
A: > 20.1 µM

Q: And the GI50 (SW-620 colon)?
A: > 25 µM

Q: What about the TGI (SW-620 colon) of the same molecule?
A: > 25 µM

Q: What about the GI50 (T-47D breast) of the same molecule?
A: 17.3 µM

Q: What about the TGI (T-47D breast) of the same molecule?
A: > 25 µM

Q: And the GI50 (TK-10 renal)?
A: 21.2 µM

Q: And the TGI (TK-10 renal)?
A: > 25 µM

Q: And the GI50 (U251 CNS)?
A: 15.2 µM

Q: And the TGI (U251 CNS)?
A: > 25 µM

Q: And the GI50 (UACC-257 melanoma)?
A: 12.5 µM

Q: And the TGI (UACC-257 melanoma)?
A: > 25 µM

Q: What about the GI50 (UACC-62 melanoma) of the same molecule?
A: > 25 µM

Q: And the TGI (UACC-62 melanoma)?
A: > 25 µM

Q: What about the GI50 (UO-31 renal) of the same molecule?
A: 7.72 µM

Q: What about the TGI (UO-31 renal) of the same molecule?
A: > 25 µM
